Source: patent publication US20090163451A1, “METHODS FOR TREATING VISCERAL PAIN” (priority 2007, published 2009)
Entries after “also recorded” stand apart in the source; their conditions may differ.

Experiments:
[1] = test system: rats with experimental pancreatitis (DBTC), referred abdominal hypersensitivity; experiment: experimental pancreatitis model (IV DBTC): referred abdominal hypersensitivity, withdrawals to von Frey filament; type: in vivo, Sprague Dawley rats; details: DBTC rats
Method: (§1) Adult male Sprague Dawley rats (Harlan, Indianapolis, Ind.), weighing 150-200 g, were maintained in a climate-controlled room with ad lib food and water on a 12 hour/12 hour light/dark cycle (lights on at 07:00 hours). All procedures followed the policies of the International Association for the Study of Pain and the NIH guidelines for the handling and use of laboratory animals. Studies were approved by the University of Arizona IACUC.
(§2) Dibutyltin dichloride (DBTC) was obtained from Sigma-Aldrich (Milwaukee, Wis.) and dissolved in 100% ethanol to a concentration of 8 mg/kg (Sparmann et al., Gastroenterology. 112:1664-1672 (1997))). Sumatriptan succinate was obtained from Toronto Research Chemicals (ON, Canada) and dissolved in saline to 1, 3, and 10 μg for RVM microinjections and 100, 200, and 300 μg/kg for systemic injections (Kayser et al., Br J Pharmacol. 137:1287-1297 (2002)). The 5HT1B antagonist isamoltane and the 5HT1D antagonist BRL15722 were obtained from Tocris (Elllisville, Mo.). Isamoltane was dissolved in saline to a concentration of 3 μg for RVM microinjection and to a concentration of 4 mg/kg (Ottani et al., Eur J Pharmacol. 497:181-186 (2004)) for system application. BRL15722 was dissolved in 10% DMSO to a concentration of 3 μg for RVM microinjection and to a concentration of 0.3 mg/kg (Ottani et al., Eur J Pharmacol. 497:181-186 (2004)) for systemic application.
For the experiments involving microinjection of drugs into the RVM, rats underwent surgeries to implant RVM cannulae. After five days of recovery, rats received either intravenous injection of DBTC to induce pancreatitis, or intracolonic injection of sodium butyrate to induce colonic hypersensitivity. Animals were monitored for development of visceral hypersensitivity on the subsequent days. On day six after either induction of pancreatitis or colonic hypersensitivity, animals underwent baseline behavioral measurements. […] For experiments investigating the effects of serotonin antagonists, the drugs were microinjected concurrently with injection of sumatriptan and animals were monitored for the subsequent two h. Separate groups of animals were microinjected with the antagonists alone to control for possible effects of the drugs by themselves.
For the experiments involving systemic drug administration, rats received intravenous injection of DBTC to induce pancreatitis or intracolonic injection of sodium butyrate to induce colonic hypersensitivity. On day six after either induction of pancreatitis of colonic hypersensitivity, animals underwent baseline behavioral measurements. […] Separate groups of animals were injected with the antagonists alone. Additionally, separate groups of animals were injected with sumatriptan systemically and microinjected with the antagonists in the RVM to determine if the RVM is a site of action for systemically applied sumatriptan. The microinjection of antagonists into the RVM was done immediately following the systemic injection of sumatriptan. All animals were tested for behavioral signs of hypersensitivity every 20 min for two h after the end of the injections.
Pancreatitis was produced by a tail vein injection of dibutyltin dichloride (DBTC, Aldrich, Milwaukee, Wis., 0.25 cc) dissolved in 100% ethanol at a dose of 8 mg/kg under isofluorane anesthesia (2-3 liters/min, 4.0%/vol until anesthetized, then 2.5%/vol throughout the procedure; Vera-Portocarrero et al., Gastroenterology. 130:2155-2164 (2006)). Control animals were injected with the vehicle solution only (100% ethanol, 0.25 mL).
Referred abdominal hypersensitivity in the pancreatitis model was quantified by measuring the number of withdrawal events evoked by application of a calibrated von Frey filament (determined by either abdominal withdrawal, licking of the abdominal area, or whole body withdrawal). Rats were placed inside Plexiglas boxes on an elevated fine fiberglass screen mesh and acclimated for 30 minutes before testing. […]

[2] = test system: rats with experimental colonic hypersensitivity (butyrate), referred lumbar hypersensitivity; experiment: colonic hypersensitivity model (intracolonic sodium butyrate): referred lumbar hypersensitivity, von Frey mechanical threshold; type: in vivo, Sprague Dawley rats; details: butyrate rats
Method: as §1, §2
For the experiments involving microinjection of drugs into the RVM, rats underwent surgeries to implant RVM cannulae. After five days of recovery, rats received either intravenous injection of DBTC to induce pancreatitis, or intracolonic injection of sodium butyrate to induce colonic hypersensitivity. Animals were monitored for development of visceral hypersensitivity on the subsequent days. On day six after either induction of pancreatitis or colonic hypersensitivity, animals underwent baseline behavioral measurements. Sumatriptan was microinjected into the RVM at different doses (separate groups of rats for each dose) and animals were monitored behaviorally for two h after sumatriptan application in the RVM. For experiments investigating the effects of serotonin antagonists, the drugs were microinjected concurrently with injection of sumatriptan and animals were monitored for the subsequent two h. Separate groups of animals were microinjected with the antagonists alone to control for possible effects of the drugs by themselves.
For the experiments involving systemic drug administration, rats received intravenous injection of DBTC to induce pancreatitis or intracolonic injection of sodium butyrate to induce colonic hypersensitivity. On day six after either induction of pancreatitis of colonic hypersensitivity, animals underwent baseline behavioral measurements. Sumatriptan was injected intraperitoneally at different doses (separate groups of rats for each dose) and the animals were monitored behaviorally every 20 min for two h after injection. For experiments investigating the effects of serotonin antagonists, the drugs were injected intraperitoneally immediately following the injection of sumatriptan (separate groups for each respective antagonist). Separate groups of animals were injected with the antagonists alone. Additionally, separate groups of animals were injected with sumatriptan systemically and microinjected with the antagonists in the RVM to determine if the RVM is a site of action for systemically applied sumatriptan. The microinjection of antagonists into the RVM was done immediately following the systemic injection of sumatriptan. All animals were tested for behavioral signs of hypersensitivity every 20 min for two h after the end of the injections.
Colonic hypersensitivity was induced by enemas of a sodium butyrate solution ([…]) twice daily for 3 days (Bourdu et al., Gastroenterology. 128:1996-2008 (2005)). […]

β-2 adrenergic receptors = β-2 adrenergic receptors (Homo sapiens, UniProt P07550); details: reported; cited from earlier work
[3] = sumatriptan 10 μg RVM, antagonist 3 μg RVM
[4] = sumatriptan 300 μg/kg IP, antagonist 3 μg RVM
[5] = sumatriptan 300 μg/kg IP, isamoltane 4 mg/kg IP or BRL15722 0.3 mg/kg IP

β-2 adrenergic receptors, sequence (P07550 whole entry): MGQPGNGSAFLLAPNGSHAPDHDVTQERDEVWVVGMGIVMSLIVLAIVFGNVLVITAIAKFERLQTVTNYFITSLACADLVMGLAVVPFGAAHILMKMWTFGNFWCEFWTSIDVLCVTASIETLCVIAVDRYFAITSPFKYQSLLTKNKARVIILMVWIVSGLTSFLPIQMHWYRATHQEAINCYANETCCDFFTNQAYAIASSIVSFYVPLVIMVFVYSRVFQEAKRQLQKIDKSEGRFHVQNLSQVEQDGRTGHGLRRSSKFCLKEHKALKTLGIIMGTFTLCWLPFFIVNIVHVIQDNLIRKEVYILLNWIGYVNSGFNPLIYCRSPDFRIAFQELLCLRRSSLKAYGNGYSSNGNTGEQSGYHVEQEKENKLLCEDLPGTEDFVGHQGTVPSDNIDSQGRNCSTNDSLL

SMILES: CC(C)NCC(O)COc1ccccc1-n1cccc1 (stereo not shown) [isamoltane]
- effect of concurrent RVM antagonist on the effect of RVM sumatriptan [1, 3]: blocked the effect of sumatriptan
- effect of RVM antagonist on the effect of systemic sumatriptan [1, 4]: failed to antagonize the effects of systemic sumatriptan; also recorded: did not modify the effect of systemic sumatriptan
- effect of concurrent systemic (IP) antagonist on the effect of systemic sumatriptan [1, 5]: reduced the effects of sumatriptan; also recorded: blocked the effects of sumatriptan
- effect of concurrent RVM antagonist on the effect of RVM sumatriptan [2, 3]: blocked the effects of sumatriptan; also recorded: blocked the effect of RVM sumatriptan
- effect of RVM antagonist on the effect of systemic sumatriptan [2, 4]: failed to antagonize the effects of systemic sumatriptan; also recorded: did not modify the effect of systemic sumatriptan
- effect of concurrent systemic (IP) antagonist on the effect of systemic sumatriptan [2, 5]: reduced the effects of sumatriptan; also recorded: blocked the effect of systemic sumatriptan
- activity at β-2 adrenergic receptors (β-2 adrenergic receptors): reported to have activity at β-2 adrenergic receptors
